In US20150105252A1, “SUBSTITUTED PYRAZOLES AS HERBICIDES” (E I DU PONT DE NEMOURS AND COMPANY, priority 2013, published 2015):

Assays:
[1] = tested on: corn; assay: Test A postemergence; type: in vivo, Zea mays
How it was run: (§1)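 Visual injury ratings, 0 = no effect to 100 = complete control, taken about 10 days after treatment against untreated controls. Test chemicals, in a non-phytotoxic surfactant-containing solvent, were sprayed onto soil preemergence or onto one- to two-leaf plants (2–10 cm) postemergence, in loam–sand soil under greenhouse conditions.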

[2] = tested on: rice; assay: Test C flooded paddy test; type: in vivo, Oryza sativa; conditions: Flood
How it was run: (§2)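 Ratings were visual and made relative to untreated controls after 13 to 15 greenhouse days.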

[3] = tested on: wheat; assay: Test A preemergence; type: in vivo, Triticum aestivum; conditions: preemergence
How it was run: as §1

[4] = tested on: morningglory; assay: Test A postemergence; type: in vivo, Ipomoea spp.
How it was run: as §1

[5] = tested on: crabgrass, large; assay: Test A postemergence; type: in vivo, Digitaria sanguinalis
How it was run: as §1

[6] = tested on: barnyardgrass; assay: Test A preemergence; type: in vivo, Echinochloa crus-galli
How it was run: as §1

[7] = tested on: pigweed; assay: Test A postemergence; type: in vivo, Amaranthus retroflexus
How it was run: as §1

[8] = tested on: pigweed; assay: Test A preemergence; type: in vivo, Amaranthus retroflexus
How it was run: as §1

[9] = tested on: velvetleaf; assay: Test A preemergence; type: in vivo, Abutilon theophrasti
How it was run: as §1

[10] = tested on: foxtail, giant; assay: Test A preemergence; type: in vivo, Setaria faberii
How it was run: as §1

[11] = tested on: wheat; assay: Test A postemergence; type: in vivo, Triticum aestivum
How it was run: as §1

[12] = tested on: velvetleaf; assay: Test A postemergence; type: in vivo, Abutilon theophrasti
How it was run: as §1

[13] = tested on: ducksalad; assay: Test C flooded paddy test; type: in vivo, Heteranthera limosa; conditions: Flood
How it was run: as §2

[14] = tested on: barnyardgrass; assay: Test A postemergence; type: in vivo, Echinochloa crus-galli
How it was run: as §1

[15] = tested on: corn; assay: Test A preemergence; type: in vivo, Zea mays
How it was run: as §1

[16] = tested on: sedge, umbrella; assay: Test C flooded paddy test; type: in vivo, Cyperus difformis; conditions: Flood
How it was run: as §2

[17] = tested on: foxtail, giant; assay: Test A postemergence; type: in vivo, Setaria faberii
How it was run: as §1

[18] = tested on: crabgrass, large; assay: Test A preemergence; type: in vivo, Digitaria sanguinalis
How it was run: as §1

[19] = tested on: barnyardgrass; assay: Test C flooded paddy test; type: in vivo, Echinochloa crus-galli; conditions: Flood
How it was run: as §2

[20] = tested on: morningglory; assay: Test A preemergence; type: in vivo, Ipomoea spp.
How it was run: as §1

[21] = tested on: ducksalad; assay: Test B flood; type: in vivo, Heteranthera limosa; conditions: 250 g ai/ha, visual rating on 0 to 100 scale (0 no effect, 100 complete control), 13 to 15 days
How it was run: (§3)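 At two leaves, seedlings received the test compound via the paddy water, pots having been flooded 3 cm over the soil surface and kept so. Greenhouse-held for 13 to 15 days, then judged by eye against controls on a scale running 0 (no effect) to 100 (complete control).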

[22] = tested on: rice; assay: Test B flood; type: in vivo, Oryza sativa; conditions: 250 g ai/ha, visual rating on 0 to 100 scale (0 no effect, 100 complete control), 13 to 15 days
How it was run: as §3

[23] = tested on: sedge, umbrella; assay: Test B flood; type: in vivo, Cyperus difformis; conditions: 250 g ai/ha, visual rating on 0 to 100 scale (0 no effect, 100 complete control), 13 to 15 days
How it was run: as §3

[24] = tested on: barnyardgrass; assay: Test B flood; type: in vivo, Echinochloa crus-galli; conditions: 250 g ai/ha, visual rating on 0 to 100 scale (0 no effect, 100 complete control), 13 to 15 days
How it was run: as §3

[25] = Postemergence, 500 g ai/ha, visual rating after approx. 10 days, 0 to 100 scale (0 no effect, 100 complete control)
[26] = postemergence, 125 g ai/ha, about 10 days, visual rating on 0 to 100 scale (0 no effect, 100 complete control)
[27] = 31 g ai/ha, scale 0 to 100 (0 no effect, 100 complete control)
[28] = 62 g ai/ha, scale 0 to 100 (0 no effect, 100 complete control)
[29] = 125 g ai/ha, visual injury, 0 to 100 scale, approx. 10 days
[30] = 500 g ai/ha, visual injury after approx. 10 days, 0 to 100 scale (0 no effect, 100 complete control)
[31] = Preemergence, 500 g ai/ha, 0 to 100 scale, 0 no effect, 100 complete control
[32] = preemergence, 125 g ai/ha, visual injury, 0 to 100 scale, approx. 10 days
[33] = preemergence, 500 g ai/ha, visual injury after approx. 10 days, 0 to 100 scale (0 no effect, 100 complete control)

CCONC(=O)c1cc(C)n(Cc2cccc(OC(F)(F)F)c2)n1 [Compound 73]
Corn plant response rating [1, 25]: 80
Corn plant response rating [1, 26]: 40
Plant response rating, Rice [2, 27]: 0
Plant response rating, Rice [2, 28]: 0
Plant response rating, Rice ([2]; 125 g ai/ha, scale 0 to 100): 0
Plant response rating, Rice ([2]; 250 g ai/ha, scale 0 to 100): 0
Wheat plant response rating [3, 29]: 0
Wheat plant response rating [3, 30]: 80
Morningglory plant response rating [4, 25]: 40
Morningglory plant response rating [4, 26]: 30
Crabgrass, Large plant response rating [5, 25]: 60
Crabgrass, Large plant response rating [5, 26]: 40
Barnyardgrass plant response rating [6, 31]: 60
Barnyardgrass plant response rating [6, 32]: 50
Pigweed plant response rating [7, 25]: 90
Pigweed plant response rating [7, 26]: 70
Pigweed plant response rating [8, 31]: 100
Pigweed plant response rating [8, 32]: 90
Velvetleaf plant response rating [9, 31]: 60
Velvetleaf plant response rating [9, 32]: 10
Foxtail, Giant plant response rating [10, 31]: 60
Foxtail, Giant plant response rating [10, 32]: 30
Wheat plant response rating [11, 25]: 40
Wheat plant response rating [11, 26]: 0
Velvetleaf plant response rating [12, 25]: 80
Velvetleaf plant response rating [12, 26]: 30
Plant response rating, Ducksalad [13, 27]: 0
Plant response rating, Ducksalad [13, 28]: 20
Plant response rating, Ducksalad ([13]; 125 g ai/ha, scale 0 to 100): 45
Plant response rating, Ducksalad ([13]; 250 g ai/ha, scale 0 to 100): 55
Barnyardgrass plant response rating ([14]; Postemergence, 125 g ai/ha, 0 to 100 scale, 0 no effect, 100 complete control): 40
Barnyardgrass plant response rating [14, 25]: 70
Corn plant response rating [15, 31]: 50
Corn plant response rating [15, 32]: 30
Plant response rating, Sedge, Umbrella [16, 27]: 0
Plant response rating, Sedge, Umbrella [16, 28]: 0
Plant response rating, Sedge, Umbrella ([16]; 125 g ai/ha, scale 0 to 100): 0
Plant response rating, Sedge, Umbrella ([16]; 250 g ai/ha, scale 0 to 100): 30
Foxtail, Giant plant response rating [17, 25]: 70
Foxtail, Giant plant response rating [17, 26]: 40
Crabgrass, Large plant response rating [18, 31]: 50
Crabgrass, Large plant response rating [18, 32]: 30
Plant response rating, Barnyardgrass [19, 27]: 0
Plant response rating, Barnyardgrass [19, 28]: 0
Plant response rating, Barnyardgrass ([19]; 125 g ai/ha, scale 0 to 100): 0
Plant response rating, Barnyardgrass ([19]; 250 g ai/ha, scale 0 to 100): 0
Morningglory plant response rating [20, 31]: 30
Morningglory plant response rating [20, 32]: 10

CCc1cc(C(=O)NCC(F)(F)F)nn1Cc1ccnc(OCC(F)(F)F)c1 [Compound 106]
Corn plant response rating [1, 25]: 60
Corn plant response rating [1, 26]: 30
Plant response rating, Rice [2, 27]: 0
Plant response rating, Rice [2, 28]: 0
Plant response rating, Rice ([2]; 125 g ai/ha, scale 0 to 100): 0
Plant response rating, Rice ([2]; 250 g ai/ha, scale 0 to 100): 0
Wheat plant response rating [3, 29]: 10
Wheat plant response rating [3, 30]: 30
Plant response rating, Ducksalad [21]: 90
Plant response rating, Rice [22]: 20
Plant response rating, Sedge, Umbrella [23]: 90
Morningglory plant response rating [4, 25]: 100
Morningglory plant response rating [4, 26]: 50
Crabgrass, Large plant response rating [5, 25]: 90
Crabgrass, Large plant response rating [5, 26]: 50
Plant response rating, Barnyardgrass [24]: 30
Barnyardgrass plant response rating [6, 32]: 50
Barnyardgrass plant response rating [6, 33]: 100
Pigweed plant response rating [7, 25]: 100
Pigweed plant response rating [7, 26]: 90
Pigweed plant response rating [8, 32]: 100
Pigweed plant response rating [8, 33]: 100
Velvetleaf plant response rating [9, 32]: 10
Velvetleaf plant response rating [9, 33]: 100
Foxtail, Giant plant response rating [10, 32]: 100
Foxtail, Giant plant response rating [10, 33]: 100
Wheat plant response rating [11, 25]: 40
Wheat plant response rating [11, 26]: 10
Velvetleaf plant response rating [12, 25]: 70
Velvetleaf plant response rating [12, 26]: 40
Plant response rating, Ducksalad [13, 27]: 40
Plant response rating, Ducksalad [13, 28]: 50
Plant response rating, Ducksalad ([13]; 125 g ai/ha, scale 0 to 100): 70
Plant response rating, Ducksalad ([13]; 250 g ai/ha, scale 0 to 100): 70
Barnyardgrass plant response rating [14, 25]: 80
Barnyardgrass plant response rating [14, 26]: 50
Corn plant response rating [15, 32]: 20
Corn plant response rating [15, 33]: 30
Plant response rating, Sedge, Umbrella [16, 27]: 70
Plant response rating, Sedge, Umbrella [16, 28]: 85
Plant response rating, Sedge, Umbrella ([16]; 125 g ai/ha, scale 0 to 100): 95
Plant response rating, Sedge, Umbrella ([16]; 250 g ai/ha, scale 0 to 100): 98
Foxtail, Giant plant response rating [17, 25]: 80
Foxtail, Giant plant response rating [17, 26]: 50
Crabgrass, Large plant response rating [18, 32]: 100
Crabgrass, Large plant response rating [18, 33]: 100
Plant response rating, Barnyardgrass [19, 27]: 0
Plant response rating, Barnyardgrass [19, 28]: 0
Plant response rating, Barnyardgrass ([19]; 125 g ai/ha, scale 0 to 100): 20
Plant response rating, Barnyardgrass ([19]; 250 g ai/ha, scale 0 to 100): 30
Morningglory plant response rating [20, 32]: 30
Morningglory plant response rating [20, 33]: 100
